Experimental data as given in patent publication US10174038B2, “Compounds and methods for antiviral treatment” (Gilead Sciences, Inc., priority 2012, dated 2019).

Tested on: RSV strain A2
Assay: RSV antiviral activity, in vitro cytoprotection assay in Hep2 cells
Assay type: cell-based, Respiratory Syncytial Virus (RSV)
Settings: human respiratory syncytial virus, HEp-2; 0.5 μM compound; RSV-induced cytopathic effect in Hep2 cells; % inhibition calculated from fitted 4-parameter dose response curve, normalized to 0% and 100%; read-out: Percent inhibition at 0.5 μM
Method: Antiviral activity against RSV was determined using an in vitro cytoprotection assay in Hep2 cells. […] The method used was similar to methods previously described in published literature (Chapman et al., Antimicrob Agents Chemother. 2007, 51(9):3346-53.)
Hep2 cells were obtained from ATCC (Manassas, Va.) and maintained in MEM media supplemented with 10% fetal bovine serum and penicillin/streptomycin. Cells were passaged twice a week and kept at subconfluent stage. Commercial stock of RSV strain A2 (Advanced Biotechnologies, Columbia, Md.) was titered before compound testing to determine the appropriate dilution of the virus stock that generated desirable cytopathic effect in Hep2 cells.
For antiviral tests, Hep2 cells were seeded into 96-well plates 24 hours before the assay at a density of 3,000 cells/well. On a separate 96 well plate, compounds to be tested were serially diluted in cell culture media. Eight concentrations in 3-fold serial dilution increments were prepared for each tested compound and 100 uL/well of each dilution was transferred in duplicate onto plates with seeded Hep2 cells. Subsequently, appropriate dilution of virus stock previously determined by titration was prepared in cell culture media and 100 uL/well was added to test plates containing cells and serially diluted compounds. Each plate included three wells of infected untreated cells and three wells of uninfected cells that served as 0% and 100% virus inhibition control, respectively. Following the infection with RSV, testing plates were incubated for 4 days in a tissue culture incubator. After the incubation, RSV-induced cytopathic effect was determined using a Cell TiterGlo reagent (Promega, Madison, Wis.) followed by a luminescence read-out. The percentage inhibition was calculated for each tested concentration relative to the 0% and 100% inhibition controls and the EC50 value for each compound was determined by non-linear regression as a concentration inhibiting the RSV-induced cytopathic effect by 50%. Ribavirin (purchased from Sigma, St. Louis, Mo.) was used as a positive control for antiviral activity.
Compounds were also tested for antiviral activity against RSV in Hep2 cells using a 384 well format. Compounds were diluted in DMSO using a 10-step serial dilution in 3-fold increments via automation in 4 adjacent replicates each. Eight compounds were tested per dilution plate. 0.4 uL of diluted compounds were then stamped via Biomek into 384-well plates (Nunc 142761 or 164730 w/lid 264616) containing 20 μL of media (Mediatech Inc. MEM supplemented with Glutamine, 10% FBS and Pen/Strep). DMSO and a suitable positive control compound, such as 80 μM GS-329467 or 10 μM 427346 was used for the 100% and 0% cell killing controls, respectively.
Hep2 cells (1.0×10^5 cells/ml) were prepared as above in batch to at least 40 mls excess of the number of sample plates (8 mls cell mix per plate) and infected with vendor supplied (ABI) RSV strain A2 to arrive at an MOI of 1:1000 (virus:cell #) or 1:3000 (vol virus:cell vol). Immediately after addition of virus, the RSV infected Hep2 cell suspension was added to each stamped 384-well plate at 20 μl per well using a uFlow dispenser, giving a final volume of 40 μL/well, each with 2000 infected cells. The plates were then incubated for 5 days at 37° C. and 5% CO2. Following incubation, the plates were equilibrated to room temperature in a biosafety cabinet hood for 1.5 hrs and 40 μL of Cell-Titer Glo viability reagent (Promega) was added to each well via uFlow. Following a 10-20 minute incubation, the plates were read using an EnVision or Victor Luminescence plate reader (Perkin-Elmer). The data was then uploaded and analyzed on the Bioinformatics portal under the RSV Cell Infectivity and 8-plate EC50-Hep2-384 or 8-plate EC50-Hep2-Envision protocols. […]

| Compound | inhibition at 0.5 µM [%] |
| --- | --- |
| Cc1cc(N(C)CCO)nc2cc([C@@H]3CCCCN3C(=O)c3cc(Cl)ccc3NS(C)(=O)=O)nn12 [Compound 60] | 87 |
| Cc1cn2nc([C@@H]3CCCCN3C(=O)c3cc(Cl)ccc3NS(=O)(=O)N(C)C)cc2nc1N1CC[C@H](N)C1 [Compound 61] | 100 |
| Cc1cn2nc([C@@H]3CCCCN3C(=O)c3cc(Cl)ccc3NC(=O)c3ccccc3)cc2nc1N1CC[C@H](N)C1 [Compound 62] | 100 |
| Cc1cn2nc([C@@H]3CCCCN3C(=O)c3cc(Cl)ccc3NC(=O)OCC(F)(F)F)cc2nc1N1CC[C@H](N)C1 [Compound 63] | 100 |
| Cc1cn2nc([C@@H]3CCCCN3C(=O)c3cc(Cl)ccc3NC(=O)N(C)C)cc2nc1N1CC[C@H](N)C1 [Compound 64] | 100 |
| Cc1cn2nc([C@@H]3CCCCN3C(=O)c3cc(Cl)ccc3NC(=O)C(F)F)cc2nc1N1CC[C@H](N)C1 [Compound 65] | 100 |
| Cc1cc(C)nc(C(=O)N2CCCC[C@H]2c2cc3nc(N4CC[C@H](N)C4)c(C)cn3n2)c1 [Compound 66] | 100 |
| Cc1cn2nc([C@@H]3CCCCN3C(=O)c3cccc(C(F)(F)F)n3)cc2nc1N1CC[C@H](N)C1 [Compound 67] | 99 |
| CC(C)OC(=O)Nc1ccc(Cl)cc1C(=O)N1CCCC[C@H]1c1cc2nc(N3CCC3)cc(N3CCN(C(=O)OC(C)(C)C)CC3)n2n1 [Compound 68] | 100 |
| CC(C)OC(=O)Nc1ccc(Cl)cc1C(=O)N1CCCC[C@H]1c1cc2nc(N3CCC3)cc(N3CCNCC3)n2n1 [Compound 69] | 99 |
| CS(=O)(=O)Nc1ccc(Cl)cc1C(=O)N1CCCC[C@H]1c1cc2nc(N3CCC3)cc(N3CCCC(N)C3)n2n1 (stereo partly shown) [Compound 70] | 100 |
| CS(=O)(=O)Nc1ccc(Cl)cc1C(=O)N1CCCC[C@H]1c1cc2nc(N3CCC3)cc(N3CC[C@@H](N)C3)n2n1 [Compound 71] | 100 |
| CN(C)[C@@H]1CCN(c2cc(N3CCC3)nc3cc([C@@H]4CCCCN4C(=O)c4cc(Cl)ccc4NS(C)(=O)=O)nn23)C1 [Compound 72] | 100 |
| Cc1ccc(NS(C)(=O)=O)c(C(=O)N2CCCC[C@H]2c2cc3nc(C4CC4)c(C)cn3n2)c1 [Compound 73] | 100 |
| Cc1cc(C2CC2)nc2cc([C@@H]3CCCCN3C(=O)c3cc(F)cc(Cl)c3NS(C)(=O)=O)nn12 [Compound 74] | 97 |
| Cc1cc(C2CC2)nc2cc([C@@H]3CCCCN3C(=O)c3cc(F)ccc3NS(C)(=O)=O)nn12 [Compound 75] | 100 |
| Cc1ccc(C(=O)N2CCCC[C@H]2c2cc3nc(C4CC4)cc(C)n3n2)c(NS(C)(=O)=O)c1 [Compound 76] | 99 |
| Cc1cc(C2CC2)nc2cc([C@@H]3CCCCN3C(=O)c3cc(Cl)ccc3N)nn12 [Compound 77] | 94 |
| Cc1nc2cc([C@@H]3CCCCN3C(=O)c3cc(Cl)ccc3NS(C)(=O)=O)nn2c(N2CCC2)c1C [Compound 78] | 99 |
| Cc1ccc(NS(C)(=O)=O)c(C(=O)N2CCCC[C@H]2c2cc3nc(C)c(C)c(N4CCC4)n3n2)c1 [Compound 79] | 100 |
| CCc1ccc(NS(C)(=O)=O)c(C(=O)N2CCCC[C@H]2c2cc3nc(C4CC4)cc(N4CCOCC4)n3n2)c1 [Compound 80] | 99 |
| Cc1ccc(NS(C)(=O)=O)c(C(=O)N2CCCC[C@H]2c2cc3nc(C)c(C)cn3n2)c1 [Compound 81] | 100 |
| CC(=O)Nc1ccc(C)c(Br)c1C(=O)N1CCCC[C@H]1c1cc2nc(C)c(C)c(C)n2n1 [Compound 83] | 100 |
| CN[C@@H]1CCN(c2cc(C)n3nc([C@@H]4CCCCN4C(=O)c4cc(Cl)ccc4NS(C)(=O)=O)cc3n2)C1 [Compound 84] | 95 |
| CS(=O)(=O)Nc1ccc(Cl)cc1C(=O)N1CCCC[C@H]1c1cc2nc(C3CC3)ccn2n1 [Compound 85] | 86 |

| Compound | inhibition at 0.5 µM [%] |
| --- | --- |
| CC(=O)Nc1ccc(C)cc1C(=O)N1CCCC[C@H]1c1cc2nc(N3CCC[C@H](N)C3)c(C)cn2n1 [Compound 86] | 84 |
| CC(=O)Nc1ccc(C)cc1C(=O)N1CCCC[C@H]1c1cc2nc(N3CC(NC(=O)OC(C)(C)C)C3)c(C)cn2n1 [Compound 87] | 89 |
| Cc1cn2nc([C@@H]3CCCCN3C(=O)c3cc(Cl)ccc3NS(C)(=O)=O)cc2nc1N1CCC[C@H](N)C1 [Compound 88] | 89 |
| CS(=O)(=O)Nc1ccc(Cl)cc1C(=O)N1CCCC[C@H]1c1cc2nc(N3CC(CO)C3)cc(N3CCOCC3)n2n1 [Compound 89] | 90 |
| CS(=O)(=O)Nc1ccc(Cl)cc1C(=O)N1CCCC[C@H]1c1cc2nc(N3CCCC3)cc(N3CCOCC3)n2n1 [Compound 90] | 100 |
| CNc1cc(N2CCOCC2)n2nc([C@@H]3CCCCN3C(=O)c3cc(Cl)ccc3NS(C)(=O)=O)cc2n1 [Compound 91] | 91 |
| CN(C)c1cc(N2CCOCC2)n2nc([C@@H]3CCCCN3C(=O)c3cc(Cl)ccc3NS(C)(=O)=O)cc2n1 [Compound 92] | 98 |
| CS(=O)(=O)Nc1ccc(Cl)cc1C(=O)N1CCCC[C@H]1c1cc2nc(N3CC[C@@H](F)C3)cc(N3CCOCC3)n2n1 [Compound 93] | 56 |
| CNC1CCN(c2cc(N3CCOCC3)n3nc([C@@H]4CCCCN4C(=O)c4cc(Cl)ccc4NS(C)(=O)=O)cc3n2)C1 (stereo partly shown) [Compound 94] | 89 |
| CS(=O)(=O)Nc1ccc(Cl)cc1C(=O)N1CCCC[C@H]1c1cc2nc(N3CC[C@@H](N)C3)cc(N3CCOCC3)n2n1 [Compound 95] | 99 |
| CS(=O)(=O)Nc1ccc(Cl)cc1C(=O)N1CCCC[C@H]1c1cc2nc(N3CC[C@H](O)C3)cc(N3CCOCC3)n2n1 [Compound 96] | 90 |
| Cc1cn2nc([C@@H]3CCCCN3C(=O)c3cc(Cl)ccc3NS(C)(=O)=O)cc2nc1N1CC(C#N)C1 [Compound 97] | 97 |
| Cc1cn2nc([C@@H]3CCCCN3C(=O)c3cc(Cl)ccc3NS(C)(=O)=O)cc2nc1N1CC(F)(F)C1 [Compound 98] | 100 |
| COC(=O)C1CCN1c1nc2cc([C@@H]3CCCCN3C(=O)c3cc(Cl)ccc3NS(C)(=O)=O)nn2cc1C (stereo partly shown) [Compound 99] | 100 |
| Cc1cn2nc([C@@H]3CCCCN3C(=O)C(NS(C)(=O)=O)c3ccccc3F)cc2nc1N1CC[C@H](N)C1 (stereo partly shown) [Compound 100] | 100 |
| Cc1cn2nc([C@@H]3CCCCN3C(=O)C(NS(C)(=O)=O)c3ccccc3)cc2nc1N1CC[C@H](N)C1 (stereo partly shown) [Compound 101] | 100 |
| COC(=O)N[C@H](C(=O)N1CCCC[C@H]1c1cc2nc(N3CC[C@H](N)C3)c(C)cn2n1)C1CC1 [Compound 102] | 99 |
| Cc1ccc(NS(C)(=O)=O)c(C(=O)N2CCCC[C@H]2c2cc3nc(C)nc(C)n3n2)c1 [Compound 103] | 27 |
| Cc1cc(C)n2cc([C@@H]3CCCCN3C(=O)c3cc(Cl)ccc3NS(C)(=O)=O)nc2c1 [Compound 104] | 3 |
| Cc1ccc(NS(C)(=O)=O)c(C(=O)N2CCCC[C@H]2c2cc3cc(C)cc(C)n3n2)c1 [Compound 105] | 96 |
| CS(=O)(=O)Nc1ccc(Cl)cc1C(=O)N1CCCC[C@H]1c1cn2nc(N3CCC3)ccc2n1 [Compound 106] | 100 |
| Cc1cc2nc([C@@H]3CCCCN3C(=O)c3cc(Cl)ccc3NS(C)(=O)=O)cn2nc1N1CC[C@H](N)C1 [Compound 107] | 100 |
| Cc1cc(N2CC[C@H](N)C2)nn2cc([C@@H]3CCCCN3C(=O)c3cc(Cl)ccc3NS(C)(=O)=O)nc12 [Compound 108] | 100 |
| Cc1ccc(NS(C)(=O)=O)c(C(=O)N2CCCC[C@H]2c2nc3cc(C)cc(C)n3n2)c1 [Compound 110] | 60 |
